Assay results published in publication PMC8617627, “Novel DYRK1A Inhibitor Rescues Learning and Memory Deficits in a Mouse Model of Down Syndrome” (Pharmaceuticals, 2021).
Like-named read-outs stand apart in the source and are kept apart here.

Tests used:
Experiment in all cases: Kinase profile (33P ATP filter binding)
Type in all cases: biochemical
Aurora B = Aurora B (Homo sapiens, UniProt Q96GD4); settings: read-out: Remaining protein kinase activity
CK1γ2 = CK1γ2 (Homo sapiens, UniProt P78368)
Chain of CK1γ2 (P78368 whole entry): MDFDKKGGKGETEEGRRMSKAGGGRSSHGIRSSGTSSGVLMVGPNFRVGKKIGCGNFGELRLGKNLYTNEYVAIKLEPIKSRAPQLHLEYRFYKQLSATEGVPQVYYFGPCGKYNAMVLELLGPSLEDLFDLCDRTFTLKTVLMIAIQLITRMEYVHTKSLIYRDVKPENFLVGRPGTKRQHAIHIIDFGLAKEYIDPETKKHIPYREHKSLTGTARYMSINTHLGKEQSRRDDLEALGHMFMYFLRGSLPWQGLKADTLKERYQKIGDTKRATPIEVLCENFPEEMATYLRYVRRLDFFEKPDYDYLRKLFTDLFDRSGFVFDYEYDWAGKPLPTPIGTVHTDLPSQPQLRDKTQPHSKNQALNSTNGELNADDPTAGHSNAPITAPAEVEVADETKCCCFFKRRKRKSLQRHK

MARK1 = MARK1 (Homo sapiens, UniProt Q9P0L2); settings: read-out: Remaining protein kinase activity
Chain of MARK1 (Q9P0L2 whole entry): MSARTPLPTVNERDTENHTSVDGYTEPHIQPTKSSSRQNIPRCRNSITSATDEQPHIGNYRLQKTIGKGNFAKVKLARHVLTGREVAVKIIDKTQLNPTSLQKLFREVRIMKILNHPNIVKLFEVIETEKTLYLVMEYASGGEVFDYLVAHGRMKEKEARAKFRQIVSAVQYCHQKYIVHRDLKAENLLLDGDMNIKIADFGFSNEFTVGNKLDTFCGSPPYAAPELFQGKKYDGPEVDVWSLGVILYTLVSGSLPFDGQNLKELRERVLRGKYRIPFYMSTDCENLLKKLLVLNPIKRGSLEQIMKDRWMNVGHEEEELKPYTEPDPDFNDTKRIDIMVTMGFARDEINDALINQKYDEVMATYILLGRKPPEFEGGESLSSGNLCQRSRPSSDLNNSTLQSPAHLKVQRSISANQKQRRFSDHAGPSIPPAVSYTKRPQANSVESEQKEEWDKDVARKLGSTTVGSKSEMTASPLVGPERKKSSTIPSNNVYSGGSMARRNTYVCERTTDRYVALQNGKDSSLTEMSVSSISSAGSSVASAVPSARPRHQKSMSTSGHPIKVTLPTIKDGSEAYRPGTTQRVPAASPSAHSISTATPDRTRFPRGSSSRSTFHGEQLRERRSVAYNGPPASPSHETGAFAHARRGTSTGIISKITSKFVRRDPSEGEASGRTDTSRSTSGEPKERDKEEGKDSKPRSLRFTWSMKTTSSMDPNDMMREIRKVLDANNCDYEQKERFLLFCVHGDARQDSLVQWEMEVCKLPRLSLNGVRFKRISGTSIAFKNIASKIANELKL

PHK = system: PHK
PKCγ = PKCγ (Homo sapiens, UniProt P05129); settings: read-out: Remaining protein kinase activity
PKD1 = biological target: T1, PKD1 (Homo sapiens, UniProt Q15139); settings: read-out: Remaining protein kinase activity
T1 sequence (Q15139 1-912): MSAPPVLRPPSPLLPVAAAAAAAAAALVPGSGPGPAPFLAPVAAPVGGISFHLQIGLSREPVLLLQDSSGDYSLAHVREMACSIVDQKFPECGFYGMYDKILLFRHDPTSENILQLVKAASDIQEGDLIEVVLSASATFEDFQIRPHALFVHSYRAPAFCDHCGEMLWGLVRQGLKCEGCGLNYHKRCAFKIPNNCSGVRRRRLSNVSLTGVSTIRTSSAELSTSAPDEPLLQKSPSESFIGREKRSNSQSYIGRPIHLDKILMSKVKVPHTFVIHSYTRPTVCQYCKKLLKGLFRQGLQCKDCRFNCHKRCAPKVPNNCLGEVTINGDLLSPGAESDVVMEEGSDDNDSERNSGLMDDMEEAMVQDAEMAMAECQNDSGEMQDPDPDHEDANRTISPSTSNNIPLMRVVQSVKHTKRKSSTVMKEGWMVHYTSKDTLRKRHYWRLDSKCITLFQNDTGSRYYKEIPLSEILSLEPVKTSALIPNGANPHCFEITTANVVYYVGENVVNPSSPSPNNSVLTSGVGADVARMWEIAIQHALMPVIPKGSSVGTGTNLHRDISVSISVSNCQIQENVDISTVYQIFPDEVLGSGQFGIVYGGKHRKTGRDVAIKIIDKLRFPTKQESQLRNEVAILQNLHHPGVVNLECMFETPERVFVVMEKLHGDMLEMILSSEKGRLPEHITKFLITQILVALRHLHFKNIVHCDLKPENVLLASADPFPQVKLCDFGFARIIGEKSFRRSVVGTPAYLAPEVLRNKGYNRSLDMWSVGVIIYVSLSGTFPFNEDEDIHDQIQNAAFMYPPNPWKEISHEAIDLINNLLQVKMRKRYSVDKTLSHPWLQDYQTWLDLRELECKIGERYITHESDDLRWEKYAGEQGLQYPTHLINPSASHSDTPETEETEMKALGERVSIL

TAK1 = biological target: T2, TAK1 (Homo sapiens, UniProt O43318); settings: read-out: Remaining protein kinase activity
T2 sequence (O43318 1-303 limits assumed): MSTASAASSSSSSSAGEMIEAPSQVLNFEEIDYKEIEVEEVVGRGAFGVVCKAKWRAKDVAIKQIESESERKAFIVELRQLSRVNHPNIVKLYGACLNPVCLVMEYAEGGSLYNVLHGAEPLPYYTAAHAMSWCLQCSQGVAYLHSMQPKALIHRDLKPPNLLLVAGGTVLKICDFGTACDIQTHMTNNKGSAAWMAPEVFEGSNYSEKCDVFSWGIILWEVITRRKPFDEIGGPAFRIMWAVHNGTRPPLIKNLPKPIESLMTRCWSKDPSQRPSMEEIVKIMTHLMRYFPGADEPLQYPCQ

TIE2 = TIE2 (Homo sapiens, UniProt Q02763); settings: read-out: Remaining protein kinase activity
Chain of TIE2 (Q02763 23-1124): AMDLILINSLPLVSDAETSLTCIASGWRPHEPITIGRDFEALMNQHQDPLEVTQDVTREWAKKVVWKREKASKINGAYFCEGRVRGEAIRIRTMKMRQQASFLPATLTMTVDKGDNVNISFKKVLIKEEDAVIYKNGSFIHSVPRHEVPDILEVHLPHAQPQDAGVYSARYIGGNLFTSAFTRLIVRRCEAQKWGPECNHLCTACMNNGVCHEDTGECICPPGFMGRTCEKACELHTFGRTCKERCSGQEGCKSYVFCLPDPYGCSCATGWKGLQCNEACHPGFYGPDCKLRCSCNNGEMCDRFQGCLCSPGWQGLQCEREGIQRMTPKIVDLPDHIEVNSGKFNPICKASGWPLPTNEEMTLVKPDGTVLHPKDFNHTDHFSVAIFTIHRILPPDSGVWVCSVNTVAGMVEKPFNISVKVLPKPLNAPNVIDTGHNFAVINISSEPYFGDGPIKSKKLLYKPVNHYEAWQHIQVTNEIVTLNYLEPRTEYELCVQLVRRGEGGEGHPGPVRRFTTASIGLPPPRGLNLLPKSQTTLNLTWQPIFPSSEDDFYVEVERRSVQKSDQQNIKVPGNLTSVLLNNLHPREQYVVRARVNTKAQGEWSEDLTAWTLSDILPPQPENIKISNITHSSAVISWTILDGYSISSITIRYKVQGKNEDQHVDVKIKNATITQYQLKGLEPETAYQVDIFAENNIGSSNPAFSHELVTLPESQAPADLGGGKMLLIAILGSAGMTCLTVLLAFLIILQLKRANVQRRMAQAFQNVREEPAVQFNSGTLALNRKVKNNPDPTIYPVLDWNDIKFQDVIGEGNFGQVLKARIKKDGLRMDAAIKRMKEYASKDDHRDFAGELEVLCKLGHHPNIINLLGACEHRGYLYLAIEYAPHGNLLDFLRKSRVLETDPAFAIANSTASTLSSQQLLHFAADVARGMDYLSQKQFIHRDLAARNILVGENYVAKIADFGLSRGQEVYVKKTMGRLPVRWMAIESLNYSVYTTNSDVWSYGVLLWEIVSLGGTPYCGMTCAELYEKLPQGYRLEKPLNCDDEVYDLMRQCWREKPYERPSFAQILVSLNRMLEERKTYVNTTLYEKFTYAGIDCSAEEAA

Chain of Aurora B (Q96GD4 whole entry): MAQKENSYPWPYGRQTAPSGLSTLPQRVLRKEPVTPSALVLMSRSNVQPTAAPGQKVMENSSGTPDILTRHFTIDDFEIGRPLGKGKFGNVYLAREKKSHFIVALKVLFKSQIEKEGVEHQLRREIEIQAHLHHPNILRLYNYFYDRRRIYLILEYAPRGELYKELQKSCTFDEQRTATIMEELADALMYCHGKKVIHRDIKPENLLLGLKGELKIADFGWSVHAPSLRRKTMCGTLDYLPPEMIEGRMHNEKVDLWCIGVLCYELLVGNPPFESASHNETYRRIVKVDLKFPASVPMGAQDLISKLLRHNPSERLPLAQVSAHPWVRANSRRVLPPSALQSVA

COc1ccc2sc(-c3cncc(NC(C)=O)c3)nc2c1 [PST-001, N-(5-(5-Methoxybenzo[d]thiazol-2-yl)pyridin-3-yl)acetamide]
remaining activity at 1 µM (Aurora B): 106% | remaining activity at 100 µM (Aurora B): 24% | Remaining protein kinase activity (CK1γ2; 1 μM): 114% | Remaining protein kinase activity (CK1γ2; 100 μM): 101% | remaining activity at 1 µM (MARK1): 122% | remaining activity at 100 µM (MARK1): 110% | Remaining protein kinase activity (PHK; 100 μM): 83% | remaining activity at 1 µM (PKCγ): 125% | remaining activity at 100 µM (PKCγ): 124% | remaining activity at 1 µM (PKD1): 103% | remaining activity at 100 µM (PKD1): 92% | remaining activity at 1 µM (TAK1): 48% | remaining activity at 100 µM (TAK1): 63% | remaining activity at 1 µM (TIE2): 129% | remaining activity at 100 µM (TIE2): 133%

COc1ccc2sc(-c3cncc(N)c3)nc2c1 [compound 1, 5-(5-Methoxybenzo[d]thiazol-2-yl)pyridin-3-amine]
remaining activity at 1 µM (Aurora B; Aurora B, 1 μM): 107% | remaining activity at 100 µM (Aurora B; Aurora B, 100 μM): 21% | Remaining protein kinase activity (CK1γ2; 1 μM): 108% | Remaining protein kinase activity (CK1γ2; 100 μM): 24% | remaining activity at 1 µM (MARK1; MARK1, 1 μM): 122% | remaining activity at 100 µM (MARK1; MARK1, 100 μM): 69% | Remaining protein kinase activity (PHK; 1 μM): 101% | Remaining protein kinase activity (PHK; 100 μM): 52% | remaining activity at 1 µM (PKCγ; PKCγ, 1 μM): 115% | remaining activity at 100 µM (PKCγ; PKCγ, 100 μM): 61% | remaining activity at 1 µM (PKD1; PKD1, 1 μM): 94% | remaining activity at 100 µM (PKD1; PKD1, 100 μM): 23% | remaining activity at 1 µM (TAK1; TAK1, 1 μM): 70% | remaining activity at 100 µM (TAK1; TAK1, 100 μM): 6% | remaining activity at 1 µM (TIE2; TIE2, 1 μM): 135% | remaining activity at 100 µM (TIE2; TIE2, 100 μM): 85%
